Values after ≈ are worked out from the molar mass of the structure shown. Like-named read-outs stand apart in the source and are kept apart here.
What was measured:
Format in all cases: cell-based
E. coli ATCC 10596 = assay: MIC by broth microdilution, E. coli; settings: Escherichia coli
In short: (§1)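 MBC measured as cell viability after compound challenge by Miles-Misra drop plating. MIC: broth microdilution at ~5×10^5 cfu/mL final (S. aureus: TSB, CAMHB; E. coli: LB, CAMHB; optional 50 μM zinc sulphate), 24 h at 37° C, 200 rpm, lowest concentration without growth by OD600; biological triplicate.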

S. aureus ATCC 6538 = assay: MIC by broth microdilution, S. aureus; settings: Staphylococcus aureus
In short: as §1

S. uberis ATCC 19436 = assay: MIC by broth microdilution, S. uberis; settings: Streptococcus uberis
In short: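 The MIC against S. uberis ATCC 19436 was the lowest compound concentration showing no growth by OD600 after 24 h at 37° C. with 200 rpm shaking. Cultures grown overnight were adjusted to OD600 ~0.025 so wells held approximately 5×10^5 cfu/mL in THB. Two-fold dilution series were made at a final volume of 200 μl. Media and untreated controls were run in triplicate on each plate.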

[1] = ATCC 10536 / ATCC 10596, No Zinc, read-out: E. coli ATCC 10536 MIC
[2] = ATCC 10536 / ATCC 10596, Zinc (50 μM), read-out: E. coli ATCC 10536 MIC
[3] = ATCC6538, No Zinc, read-out: S. aureus ATCC 6538 MIC
[4] = ATCC6538, Zinc (50 μM), read-out: S. aureus ATCC 6538 MIC
[5] = ATCC19436, No Zinc, read-out: S. uberis ATCC 19436 MIC
[6] = ATCC19436, Zinc (50 μM), read-out: S. uberis ATCC 19436 MIC

SMILES | MIC (E. coli ATCC 10596; [1]) | MIC (E. coli ATCC 10596; [2]) | MIC (S. aureus ATCC 6538; [3]) | MIC (S. aureus ATCC 6538; [4]) | MIC (S. uberis ATCC 19436; [5]) | MIC (S. uberis ATCC 19436; [6]) | MIC (E. coli ATCC 10596; ATCC 10536 / ATCC 10596, read-out: E. coli ATCC 10536 MIC, No Zinc) | MIC (E. coli ATCC 10596; ATCC 10536 / ATCC 10596, read-out: E. coli ATCC 10536 MIC, Zinc (50 μM)) | MIC (S. aureus ATCC 6538; ATCC6538, read-out: S. aureus ATCC 6538 MIC, No Zinc) | MIC (S. aureus ATCC 6538; ATCC6538, read-out: S. aureus ATCC 6538 MIC, Zinc (50 μM)) | MIC (S. uberis ATCC 19436; ATCC19436, read-out: S. uberis ATCC 19436 MIC, No Zinc) | MIC (S. uberis ATCC 19436; ATCC19436, read-out: S. uberis ATCC 19436 MIC, Zinc (50 μM))
Cc1cccc(S(=O)(=O)Nc2cccc3ccc(CN(C)C)nc23)c1 [ZDR315, N-(2-((Dimethylamino)methyl)quinolin-8-yl)-3-methylbenzenesulfonamide] | > 256 µg/mL | > 256 µg/mL | 256 µg/mL (≈ 720 µM) | > 256 µg/mL | > 256 µg/mL | 0.25 µg/mL (≈ 0.703 µM) |  |  |  |  |  | 
CN(C)Cc1ccc2cccc(NS(=O)(=O)c3ccc(N)cc3)c2n1 [ZDR160, 4-Amino-N-(2-((dimethylamino)methyl)quinolin-8-yl)benzenesulfonamide] | > 256 µg/mL | > 256 µg/mL | > 256 µg/mL | > 256 µg/mL | 256 µg/mL (≈ 718 µM) | > 256 µg/mL |  |  |  |  |  | 
O=S(=O)(Nc1cccc2ccc(CN(CCO)CCO)nc12)c1ccc(C(F)(F)F)cc1 [ZDR094, N-(2-((Bis(2-hydroxyethyl)amino)methyl)quinolin-8-yl)-4-(trifluoromethyl)benzenesulfonamide] | 256 µg/mL (≈ 545 µM) | 256 µg/mL (≈ 545 µM) | 62 µg/mL (≈ 132 µM) | 32 µg/mL (≈ 68.2 µM) | 32 µg/mL (≈ 68.2 µM) | 4 µg/mL (≈ 8.52 µM) |  |  |  |  |  | 
CSc1ccc(S(=O)(=O)Nc2cccc3ccc(CN(C)C)nc23)cc1 [ZDR257, N-(2-((Dimethylamino)methyl)quinolin-8-yl)-4-(methylthio)benzenesulfonamide] | > 256 µg/mL | > 256 µg/mL | > 256 µg/mL | > 256 µg/mL | > 256 µg/mL | 0.0625 µg/mL (≈ 0.161 µM) |  |  |  |  |  | 
CNCc1ccc2cccc(NS(=O)(=O)c3ccc(C(F)(F)F)cc3)c2n1 [ZDR024, N-(2-((Methylamino)methyl)quinolin-8-yl)-4-(trifluoromethyl)-benzenesulfonamide] | 256 µg/mL (≈ 647 µM) | ≥ 256 µg/mL | 16 µg/mL (≈ 40.5 µM) | 8 µg/mL (≈ 20.2 µM) | 64 µg/mL (≈ 162 µM) | 0.25 µg/mL (≈ 0.632 µM) |  |  |  |  |  | 
CN(C)Cc1ccc2cccc(NS(=O)(=O)CC3CC3)c2n1 [ZDR503, 1-Cyclopropyl-N-(2-((dimethylamino)methyl)quinolin-8-yl)methanesulfonamide] | > 256 µg/mL | > 256 µg/mL | > 256 µg/mL | 256 µg/mL (≈ 801 µM) | > 256 µg/mL | 0.125 µg/mL (≈ 0.391 µM) |  |  |  |  |  | 
CN(CCN(C)Cc1ccc2cccc(NS(=O)(=O)c3ccc(C(F)(F)F)cc3)c2n1)Cc1ccc2cccc(NS(=O)(=O)c3ccc(C(F)(F)F)cc3)c2n1 [ZDR036, N,N′-(((Ethane-1,2-diylbis(methylazanediyl))bis(methylene))-bis(quinoline-2,8-diyl))bis(4-(trifluoromethyl)benzenesulfonamide)] | > 256 µg/mL | > 256 µg/mL | > 256 µg/mL | > 256 µg/mL | > 256 µg/mL | > 256 µg/mL |  |  |  |  |  | 
O=C(CNCc1ccc2cccc(NS(=O)(=O)c3ccc(C(F)(F)F)cc3)c2n1)NCCCN1CCCCC1 [ZDR262, N-(3-(Piperidin-1-yl)propyl)-2-(((8-((4-(trifluoromethyl)phenyl)sulfonamido)quinolin-2-yl)methyl)amino)acetamide di-trifluoroacetate] |  |  |  |  |  |  | 32 µg/mL (≈ 56.8 µM) | 64 µg/mL (≈ 114 µM) | 64 µg/mL (≈ 114 µM) | 128 µg/mL (≈ 227 µM) | 8 µg/mL (≈ 14.2 µM) | 16 µg/mL (≈ 28.4 µM)
O=S(=O)(Nc1cccc2ccc(CNCc3cccnc3)nc12)c1ccc(C(F)(F)F)cc1 [ZDR101, N-(2-(((Pyridin-3-ylmethyl)amino)methyl)quinolin-8-yl)-4-(trifluoromethyl)benzenesulfonamide] | 128 µg/mL (≈ 271 µM) | > 256 µg/mL | 64 µg/mL (≈ 135 µM) | 64 µg/mL (≈ 135 µM) | > 256 µg/mL | 4 µg/mL (≈ 8.47 µM) |  |  |  |  |  | 
CN(C)Cc1ccc2cccc(NS(=O)(=O)Cc3ccc(C(F)(F)F)cc3)c2n1 [ZDR320, N-(2-((Dimethylamino)methyl)quinolin-8-yl)-1-(4-(trifluoromethyl)phenyl)methanesulfonamide] | > 256 µg/mL | > 256 µg/mL | > 256 µg/mL | 128 µg/mL (≈ 302 µM) | 256 µg/mL (≈ 605 µM) | 0.0625 µg/mL (≈ 0.148 µM) |  |  |  |  |  | 
CCCCNCc1ccc2cccc(NS(=O)(=O)c3ccc(C(F)(F)F)cc3)c2n1 [ZDR401, N-(2-((Butylamino)methyl)quinolin-8-yl)-4-(trifluoromethyl)benzenesulfonamide] | 64 µg/mL (≈ 146 µM) | > 256 µg/mL | 32 µg/mL (≈ 73.1 µM) | 128 µg/mL (≈ 293 µM) | 16 µg/mL (≈ 36.6 µM) | 0.125 µg/mL (≈ 0.286 µM) |  |  |  |  |  | 
COc1ccc(S(=O)(=O)Nc2cccc3ccc(CN(C)C)nc23)cc1 [ZDR063, N-(2-((Dimethylamino)methyl)quinolin-8-yl)-4-methoxybenzenesulfonamide] | > 256 µg/mL | > 256 µg/mL | > 256 µg/mL | > 256 µg/mL | > 256 µg/mL | 0.25 µg/mL (≈ 0.673 µM) |  |  |  |  |  | 
CN(C)Cc1ccc2cccc(NS(=O)(=O)c3cccc(C#N)c3)c2n1 [ZDR076, 3-cyano-N-(2-((dimethylamino)methyl)quinolin-8-yl)benzenesulfonamide] | > 256 µg/mL | > 256 µg/mL | > 256 µg/mL | > 256 µg/mL | > 256 µg/mL | 1 µg/mL (≈ 2.73 µM) |  |  |  |  |  | 
COC(=O)c1sccc1S(=O)(=O)Nc1cccc2ccc(CN(C)C)nc12 [ZDR319, Methyl 3-(N-(2-((dimethylamino)methyl)quinolin-8-yl)sulfamoyl)thiophene-2-carboxylate] | > 256 µg/mL | > 256 µg/mL | > 256 µg/mL | > 256 µg/mL | > 256 µg/mL | 1 µg/mL (≈ 2.47 µM) |  |  |  |  |  | 
CN(C)Cc1ccc2cccc(NS(=O)(=O)c3ccc(O)cc3)c2n1 [ZDR164, N-(2-((Dimethylamino)methyl)quinolin-8-yl)-4-hydroxybenzenesulfonamide] | > 256 µg/mL | > 256 µg/mL | > 256 µg/mL | > 256 µg/mL | > 256 µg/mL | > 256 µg/mL |  |  |  |  |  | 
CN(C)Cc1ccc2cccc(NS(=O)(=O)c3ccc(F)cc3)c2n1 [ZDR065, N-(2-((Dimethylamino)methyl)quinolin-8-yl)-4-fluorobenzenesulfonamide] | > 256 µg/mL | > 256 µg/mL | 256 µg/mL (≈ 712 µM) | 256 µg/mL (≈ 712 µM) | > 256 µg/mL | 0.125 µg/mL (≈ 0.348 µM) |  |  |  |  |  | 
O=S(=O)(Nc1cccc2ccc(CN3CCCCCC3)nc12)c1ccc(C(F)(F)F)cc1 [ZDR408, N-(2-(Azepan-1-ylmethyl)quinolin-8-yl)-4-(trifluoromethyl)benzenesulfonamide] | > 256 µg/mL | 256 µg/mL (≈ 552 µM) | 64 µg/mL (≈ 138 µM) | 256 µg/mL (≈ 552 µM) | 32 µg/mL (≈ 69 µM) | 0.125 µg/mL (≈ 0.27 µM) |  |  |  |  |  | 
CN1CCN(Cc2ccc3cccc(NS(=O)(=O)c4ccc(C(F)(F)F)cc4)c3n2)CC1 [ZDR089, N-(2-((4-Methylpiperazin-1-yl)methyl)quinolin-8-yl)-4-(trifluoromethyl)benzenesulfonamide] | > 256 µg/mL | > 256 µg/mL | 256 µg/mL (≈ 551 µM) | 128 µg/mL (≈ 276 µM) | 64 µg/mL (≈ 138 µM) | 0.5 µg/mL (≈ 1.08 µM) |  |  |  |  |  | 
C#CCS(=O)(=O)Nc1cccc2ccc(CN(C)C)nc12 [ZDR506, N-(2-((Dimethylamino)methyl)quinolin-8-yl)prop-2-yne-1-sulfonamide] | > 256 µg/mL | > 256 µg/mL | > 256 µg/mL | > 256 µg/mL | 256 µg/mL (≈ 844 µM) | 2 µg/mL (≈ 6.59 µM) |  |  |  |  |  | 

Reference: US11691949B2, “Quinoline sulfonamide compounds and their use as antibacterial agents” (OTAGO INNOVATION LIMITED, priority 2017, dated 2023)
